9 compounds from PubChem BioAssay (NCI) can be followed below.

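Five concentrations, 48 hours, 96-well plates. GI50 marks 50% less growth. TGI denotes the concentration required for complete inhibition of growth.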 Where only a bound is given, the exact number is not on record here.

Some test systems named below: CAKI-1 renal; CCRF-CEM leukemia; HCT-15 colon; HOP-92 NSCLC; K-562 leukemia; NCI-H460 lung; OVCAR-5 ovarian; SF-295 CNS; SK-MEL-5 melanoma; U251 CNS.
Common to all, as to assay: NCI-60 cell line screen, 48 h

For the compound `Cc1ccc(C(CC(=O)c2ccccc2)C2C(=O)NC(=O)NC2=O)cc1` (centres undefined), the GI50 in the test on CAKI-1 renal, in the test with CCRF-CEM leukemia, in the test with HCT-15 colon, in the test with HOP-92 NSCLC, with K-562 leukemia and with NCI-H460 lung was > 100 µM throughout. The GI50 in the test on OVCAR-5 ovarian, in the test on SF-295 CNS, in the test on SK-MEL-5 melanoma and in the test on U251 CNS was > 100 µM each time. The TGI in the test on CAKI-1 renal, with CCRF-CEM leukemia, with HCT-15 colon, in the test on HOP-92 NSCLC, in the test with K-562 leukemia and with NCI-H460 lung was > 100 µM each time. For the same compound, the TGI in the test with OVCAR-5 ovarian, with SF-295 CNS, with SK-MEL-5 melanoma and with U251 CNS was > 100 µM throughout.

Turning to `O=C1NC2(CCCCCC2)C2CCCCCCC12O` (centres undefined), the TGI in the test with CAKI-1 renal, in the test with CCRF-CEM leukemia, in the test on HCT-15 colon, in the test with HOP-92 NSCLC, in the test with K-562 leukemia and in the test with NCI-H460 lung was > 100 µM throughout. The TGI in the test with OVCAR-5 ovarian, with SF-295 CNS, in the test with SK-MEL-5 melanoma and in the test with U251 CNS was > 100 µM in each case.

For `O=S(=O)(Nc1ccc(Br)c(Cl)c1)c1ccc(-c2cnc(C3CC3)o2)cc1`, the GI50 in the test on CAKI-1 renal is 0.431 µM; in the test with CCRF-CEM leukemia it was 0.411 µM; in the test on HCT-15 colon it was 0.445 µM; with HOP-92 NSCLC, 0.487 µM; in the test on K-562 leukemia, 0.323 µM; in the test with NCI-H460 lung it was 0.415 µM. Moreover, the GI50 is 1.97 µM with OVCAR-5 ovarian, 0.343 µM in the test on SF-295 CNS, 0.602 µM in the test with SK-MEL-5 melanoma and 0.507 µM in the test on U251 CNS. Moreover, the TGI in the test with CAKI-1 renal is 16.4 µM; in the test on CCRF-CEM leukemia, > 45.9 µM; in the test on HCT-15 colon it was 13.7 µM; in the test on HOP-92 NSCLC, 8.72 µM; in the test with K-562 leukemia, > 100 µM; in the test with NCI-H460 lung, 12.6 µM. Moreover, the TGI in the test on OVCAR-5 ovarian was 14.1 µM; in the test on SF-295 CNS, 3.41 µM; in the test with SK-MEL-5 melanoma, 13.9 µM; in the test on U251 CNS, 15.4 µM.

`CC1CC2OC(=O)C(C)C2CC2(C)C(OC3OC(CO)C(O)C(O)C3O)OCCC12` (centres undefined): the TGI in the test with CAKI-1 renal, in the test with CCRF-CEM leukemia, in the test on HCT-15 colon, in the test on HOP-92 NSCLC, with K-562 leukemia and in the test on NCI-H460 lung was > 100 µM throughout. The TGI with OVCAR-5 ovarian, with SF-295 CNS, in the test with SK-MEL-5 melanoma and in the test with U251 CNS was > 100 µM each time.

Turning to `CC1OC(OC2C[C@](O)(C(=O)CF)Cc3c(O)c4c(c(O)c32)C(=O)c2ccccc2C4=O)CC(N)C1O` (some centres undefined), the TGI came out at 0.0763 µM with CAKI-1 renal; 0.0133 µM in the test on CCRF-CEM leukemia; 0.514 µM in the test on HCT-15 colon; 0.805 µM with HOP-92 NSCLC; 1.96 µM in the test with K-562 leukemia; 0.031 µM in the test with NCI-H460 lung. The TGI in the test with OVCAR-5 ovarian was 0.541 µM; with SF-295 CNS it was 4.74 µM; with SK-MEL-5 melanoma, 0.0657 µM; in the test with U251 CNS, 0.394 µM.

In the case of `CN[C@H](C#Cc1c(F)ccc2c1/C(=C/c1[nH]ccc1OC)C(=O)N2)CO`, the GI50 in the test with CAKI-1 renal is 0.0314 µM; in the test with CCRF-CEM leukemia, 0.349 µM; with HCT-15 colon, 0.117 µM; in the test with HOP-92 NSCLC it was 3.17 µM; in the test with K-562 leukemia it was 0.989 µM; in the test with NCI-H460 lung it was 0.358 µM. Also, the GI50 was 0.917 µM in the test on OVCAR-5 ovarian, 0.946 µM in the test on SF-295 CNS, 0.511 µM in the test with SK-MEL-5 melanoma and 0.323 µM in the test on U251 CNS. Further, the TGI amounted to 0.736 µM in the test on CAKI-1 renal; 1.83 µM in the test with CCRF-CEM leukemia; 3.02 µM in the test with HCT-15 colon; 11.8 µM with HOP-92 NSCLC; 5.89 µM in the test with K-562 leukemia; 2.58 µM in the test with NCI-H460 lung. For the same compound, the TGI in the test with OVCAR-5 ovarian was 3.71 µM; with SF-295 CNS, 25 µM; in the test on SK-MEL-5 melanoma, 1.92 µM; with U251 CNS, 2.94 µM.

For the compound `O=C1C(N2CC2)=C(N2CC2)C(=O)C(N2CC2)=C1N1CC1`, the GI50 was 0.0371 µM in the test on CAKI-1 renal; 1.82 µM with CCRF-CEM leukemia; 0.15 µM in the test with HCT-15 colon; 2.99 µM with HOP-92 NSCLC; 0.785 µM in the test with K-562 leukemia; 2.29 µM with OVCAR-5 ovarian. Besides, the GI50 is < 0.0211 µM with SF-295 CNS, 0.144 µM in the test with SK-MEL-5 melanoma and 0.275 µM in the test with U251 CNS. For the same compound, the TGI with CAKI-1 renal was 2.18 µM; in the test with CCRF-CEM leukemia it was > 100 µM; in the test on HCT-15 colon it was 0.901 µM; with HOP-92 NSCLC it was 29.7 µM; with K-562 leukemia, > 100 µM; in the test on NCI-H460 lung it was 0.178 µM. Besides, the TGI in the test with OVCAR-5 ovarian came out at 6.92 µM; in the test with SF-295 CNS it was 1 µM; in the test on SK-MEL-5 melanoma, 0.359 µM; in the test on U251 CNS it was 3.18 µM.

For `Nc1nc(N)c2nc(CNc3ccc(C(=O)NC(CC(=O)O)C(=O)O)cc3)cnc2n1` (centres undefined), the GI50 in the test on CAKI-1 renal is 0.481 µM; with CCRF-CEM leukemia it was 0.422 µM; in the test with HCT-15 colon, 0.526 µM; in the test with HOP-92 NSCLC, > 100 µM; in the test on K-562 leukemia it was 0.0741 µM; in the test with NCI-H460 lung it was 0.354 µM. For the same compound, the GI50 with OVCAR-5 ovarian was 16.3 µM; in the test with SF-295 CNS it was 0.508 µM; in the test with SK-MEL-5 melanoma, 3.33 µM; in the test on U251 CNS, 1.97 µM. The TGI with CAKI-1 renal was 12.4 µM; with CCRF-CEM leukemia, > 100 µM; with HCT-15 colon it was > 100 µM; in the test with HOP-92 NSCLC, > 100 µM; with K-562 leukemia, > 100 µM; with NCI-H460 lung, > 100 µM. The TGI with OVCAR-5 ovarian is > 100 µM; in the test on SF-295 CNS it was > 34.6 µM; in the test on SK-MEL-5 melanoma it was > 100 µM; in the test with U251 CNS it was > 100 µM.

For `O=C(Nc1cccc(-n2cc(-c3ccncc3)c(-c3ccc(Cl)c(O)c3)n2)c1)c1ccc(N2CCOCC2)c(C(F)(F)F)c1`, the GI50 was 2.78 µM in the test on CAKI-1 renal; 1.82 µM with CCRF-CEM leukemia; 1.81 µM with HCT-15 colon; 0.555 µM in the test on HOP-92 NSCLC; 1.88 µM in the test with K-562 leukemia; 1.72 µM in the test on NCI-H460 lung. In addition, the GI50 in the test with OVCAR-5 ovarian was > 50 µM; in the test with SF-295 CNS, 1.71 µM; with SK-MEL-5 melanoma it was 2.47 µM; in the test on U251 CNS, 1.85 µM. Moreover, the TGI in the test on CAKI-1 renal was 24.6 µM; in the test with CCRF-CEM leukemia, > 50 µM; with HCT-15 colon it was 25.3 µM; in the test with HOP-92 NSCLC it was 3.81 µM; in the test on K-562 leukemia, > 50 µM; in the test with NCI-H460 lung, 14.8 µM. For the same compound, the TGI in the test with OVCAR-5 ovarian is > 50 µM; in the test with SF-295 CNS, 7.55 µM; with SK-MEL-5 melanoma, 10.2 µM; with U251 CNS, 24.9 µM.
